Results on 17 compounds are retold here after patent US20240101548A1, “HYDROXAMATE COMPOUND, PREPARATION METHOD THEREFOR AND APPLICATION THEREOF” (SHENZHEN CHIPSCREEN BIOSCIENCES CO., LTD., priority 2020, published 2024).

In assay [1] the test system is IL-10-induced JAK1/TYK2 signal pathway. Briefly: IL-10-induced JAK1/TYK2 signal pathway STAT3-Luc reporter gene assay in U2OS cells. The class given is cell-based, human. Particulars: Homo sapiens, read-out: Half inhibition dose (IC50) on IL-10-induced JAK1/TYK2 signal pathway. Put shortly:
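Luciferase read-out (560 nm) corrected by GFP signal (Ex485/Em520) gives IL-10 pathway activity, and IC50 is derived from inhibition rates. Cells were U2OS transfected with IL-10R1 plus STAT3-Luc reporter, pretreated 6 h with 0.1–300 nM compound, then stimulated 24 h with IL-10 at 10 ng/mL.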
For orientation: A reporter such as luciferase makes a cellular process visible.

Assay [2] has as its system IL-2-induced JAK1/JAK3 signal pathway. As to the kind of experiment: IL-2-induced proliferation of KHYG-1 cells (JAK1/JAK3 signal). Particulars: Homo sapiens; KHYG-1 cell proliferation, IL-2 10 ng/mL, 72 hours; read-out: Inhibition activity IC50 on IL-2-induced JAK1/JAK3 signal pathway. The class given is cell-based, human. Put shortly: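 Controls were wells lacking both compound and cytokine (0%) and compound-free IL-2 wells (100%). C50 was calculated from inhibition rates across doses.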

The target in assay [3] is TYK2 JH2 domain (Homo sapiens (Human), UniProt P29597). Briefly: TYK2 JH2 domain FRET tracer assay. Format: binding. Particulars: FRET 665/615 nm; read-out: Inhibition activity IC50 on TYK2 JH2 domain. The procedure:
Compound of the present invention formulated into different concentrations (series 3 times dilutions, started from 60 μM, 11 concentrations in total) was added to 384-well plate, followed by 5 μL of enzyme (i.e., TYK2 JH2 domain), Tb antibody (Cisbio) and tracer. The mixture was incubated at 25° C. for 60 min and left at 4° C. overnight.

The subject of assay [4] is EPO-induced JAK2 signal pathway. Briefly: EPO-induced proliferation of UT-7 cells (JAK2 signal). Conditions: Homo sapiens, UT7; UT-7 cell proliferation, EPO 10 ng/mL, 72 hours; read-out: Inhibition activity IC50 on EPO-induced JAK2 signal pathway. Format: cell-based, human. An outline of the steps: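 […] was derived from inhibition rates across doses, scaled between wells lacking compound and cytokine (0) and EPO without compound (100), using alamarBlue fluorescence at Ex530/Em590. Compound (final 0-10000 nM) and 10 ng/mL EPO were given to UT-7 cells at 15000 per well for 72 h at 37° C.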

Where [5] appears, read: U2OS, U2OS cells, STAT3-Luc reporter, IL-10 10 ng/mL.

Where two headings read alike, the source gives them in different places.

TYK2 JH2 domain, sequence (P29597 589-875): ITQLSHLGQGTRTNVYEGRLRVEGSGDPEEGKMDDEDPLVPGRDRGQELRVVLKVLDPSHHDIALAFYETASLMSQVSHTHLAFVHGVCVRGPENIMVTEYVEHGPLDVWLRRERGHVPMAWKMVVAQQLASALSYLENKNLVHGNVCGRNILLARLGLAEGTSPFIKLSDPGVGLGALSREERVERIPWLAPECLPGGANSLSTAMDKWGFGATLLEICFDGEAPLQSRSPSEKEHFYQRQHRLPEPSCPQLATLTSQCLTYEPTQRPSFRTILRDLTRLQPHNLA

In the case of `CCONC(=O)c1cnc(Nc2cc(C)nc(C)n2)cc1Nc1ccc(C2CC2)cc1N(C)S(C)(=O)=O` [Example 21, 4-((4-cyclopropyl-2-(N-methylmethanesulfonamido)phenyl)amino)-6-((2,6-dimethylpyrimidin-4-yl)amino)-N-ethoxy nicotinamide], the IC50 in assay [1] (setting [5]) was 0.421 nM; in assay [2] it was above 10 µM; in assay [3], 0.05 nM; in assay [4], above 10 µM.

On to `CCONC(=O)c1cnc(Nc2cc(C)nc(C)n2)cc1Nc1cc(F)c(C2CC2)cc1N(C)S(C)(=O)=O` [Example 98], for which the IC50 was 1.51 nM in assay [1] (setting [5]), above 10 µM in assay [2], 0.09 nM in assay [3] and above 10 µM in assay [4].

Consider `CCONC(=O)c1cnc(Nc2cc(C)nc(C)n2)cc1Nc1ccc(Cl)cc1N(C)S(C)(=O)=O` [Example 115, 4-((4-chloro-2-(N-methylmethanesulfonamido)phenyl)amino)-6-((2,6-dimethylpyrimidin-4-yl)amino)-N-ethoxy nicotinamide], for which the IC50 was 0.261 nM in assay [1] (setting [5]), above 10 µM in assay [2], 0.07 nM in assay [3] and above 10 µM in assay [4].

Regarding `CCONC(=O)c1cnc(Nc2cc(C)nc(C)n2)cc1Nc1ccc(OCC)cc1N(C)S(C)(=O)=O` [Example 181], the IC50 in assay [1] (setting [5]) was 0.56 nM; in assay [2], above 10 µM; in assay [3], 0.08 nM; in assay [4], above 10 µM.

On to `CCONC(=O)c1cnc(Nc2cc(C)nc(C)n2)cc1Nc1ccc(C)nc1N(C)S(C)(=O)=O` [Example 186], for which the IC50 in assay [1] (setting [5]) was 0.276 nM; in assay [2] it was above 10 µM; in assay [3], 0.07 nM; in assay [4], above 10 µM.

`CCONC(=O)c1cnc(Nc2ccnc(C)n2)cc1Nc1ccc(C2CC2)cc1N(C)S(C)(=O)=O` [Example 192, 4-((4-cyclopropyl-2-(N-methylmethanesulfonamido)phenyl)amino)-N-ethoxy-6-((2-methylpyrimidin-4-yl)amino)nicotinamide]: the IC50 was 0.458 nM in assay [1] (setting [5]), above 10 µM in assay [2], 0.08 nM in assay [3] and above 10 µM in assay [4].

`CCONC(=O)c1cnc(Nc2cc(C)nc(C)n2)cc1Nc1cc(F)c(CC)cc1N(C)S(C)(=O)=O` [Example 193, 6-((2,6-dimethylpyrimidin-4-yl)amino)-N-ethoxy-4-((4-ethyl-5-fluoro-2-(N-methylmethanesulfonamido)phenyl)amino)nicotinamide]: the IC50 in assay [1] (setting [5]) was 0.647 nM; in assay [2] it was above 10 µM; in assay [3], 0.06 nM; in assay [4] it was above 10 µM.

For `CCONC(=O)c1cnc(Nc2ccnc(C)n2)cc1Nc1cc(F)c(C2CC2)cc1N(C)S(C)(=O)=O` [Example 194, 4-((4-cyclopropyl-5-fluoro-2-(N-methylmethanesulfonamido)phenyl)amino)-N-ethoxy-6-((2-methylpyrimidin-4-yl)amino)nicotinamide], the IC50 was 0.6 nM in assay [1] (setting [5]), above 10 µM in assay [2], 0.08 nM in assay [3] and above 10 µM in assay [4].

Consider `CCONC(=O)c1cnc(Nc2cc(C)nc(C)n2)cc1Nc1cc(F)c(Cl)cc1N(C)S(C)(=O)=O` [Example 198, 4-((4-chloro-5-fluoro-2-(N-methylmethanesulfonamido)phenyl)amino)-6-((2,6-dimethylpyrimidin-4-yl)amino)-N-ethoxy nicotinamide], for which the IC50 in assay [1] (setting [5]) was 0.65 nM; in assay [2], above 10 µM; in assay [3], 0.08 nM; in assay [4], above 10 µM.

`CCONC(=O)c1cnc(Nc2ccnc(OC)n2)cc1Nc1cc(F)c(Cl)cc1N(C)S(C)(=O)=O` [Example 200, 4-((4-chloro-5-fluoro-2-(N-methylmethanesulfonamido)phenyl)amino)-N-ethoxy-6-((2-methoxypyrimidin-4-yl)amino)nicotinamide]: the IC50 in assay [1] (setting [5]) was 0.42 nM; in assay [2], above 10 µM; in assay [3], 0.06 nM; in assay [4], above 10 µM.

In the case of `CCONC(=O)c1cnc(Nc2cc(C)nc(C)n2)cc1Nc1ccc(C(C)C)cc1N(C)S(C)(=O)=O` [Example 201, 6-((2,6-dimethylpyrimidin-4-yl)amino)-N-ethoxy-4-((4-isopropyl-2-(N-methylmethanesulfonamido)phenyl)amino)nicotinamide], the IC50 is 0.541 nM in assay [1] (U2OS cells, STAT3-Luc reporter, IL-10 10 ng/mL); above 10 µM in assay [2]; 0.06 nM in assay [3]; above 10 µM in assay [4].

Consider `CCONC(=O)c1cnc(Nc2cc(C)nc(C)n2)cc1Nc1cc(F)cc(-c2ncn(C3CC3)n2)c1OC` [Example 204], for which the IC50 in assay [1] (setting [5]) was 0.534 nM; in assay [2] it was above 10 µM; in assay [3], 0.06 nM; in assay [4] it was above 10 µM.

On to `CCONC(=O)c1cnc(Nc2cc(C)nc(C)n2)cc1Nc1cc(F)c(C(C)C)cc1N(C)S(C)(=O)=O` [Example 229, 6-((2,6-dimethylpyrimidin-4-yl)amino)-N-ethoxy-4-((5-fluoro-4-isopropyl-2-(N-methylmethanesulfonamido)phenyl)amino)nicotinamide], for which the IC50 in assay [1] (setting [5]) is 0.424 nM; in assay [2], above 10 µM; in assay [3], 0.05 nM; in assay [4], above 10 µM.

Consider `CCONC(=O)c1cnc(Nc2cc(C)nc(C)n2)cc1Nc1cccc(-c2ncn(C)n2)c1OC` [Example 268, 6-((2,6-dimethylpyrimidin-4-yl)amino)-N-ethoxy-4-((2-methoxy-3-(1-methyl-1H-1,2,4-triazol-3-yl)phenyl)amino)nicotinamide], for which the IC50 is 0.315 nM in assay [1] (setting [5]), above 10 µM in assay [2] and above 10 µM in assay [4].

As to `[2H]C([2H])([2H])Oc1c(Nc2cc(Nc3cc(C)nc(C)n3)ncc2C(=O)NOCC)cccc1-c1ncc(F)cn1` [Example 273, 6-((2,6-dimethylpyrimidin-4-yl)amino)-N-ethoxy-4-((3-(5-fluoropyrimidin-2-yl)-2-(methoxy-d3)phenyl)amino)nicotinamide], the results for the IC50 in assay [1] (setting [5]), in assay [2] and in assay [4] were 2.19 nM, above 10 µM and above 10 µM, respectively.

For the compound `CCONC(=O)c1cnc(NC(=O)C2CC2(F)F)cc1Nc1ccc(C2CC2)cc1N(C)S(C)(=O)=O` (centres unmarked) [Example 277, 4-((4-cyclopropyl-2-(N-methylmethanesulfonamido)phenyl)amino)-6-(2,2-difluorocyclopropyl-1-carboxamido)-N-ethoxy nicotinamide], the IC50 in assay [1] (setting [5]) is 0.466 nM; in assay [2] it was above 10 µM; in assay [3], 0.12 nM; in assay [4] it was above 10 µM.

Take `[2H]C([2H])([2H])Oc1c(Nc2cc(Nc3cc(C)nc(C)n3)ncc2C(=O)NOCC)cccc1-c1ncccn1` [Example 279, 6-((2,6-dimethylpyrimidin-4-yl)amino)-N-ethoxy-4-((2-(methoxy-d3)-3-(pyrimidin-2-yl)phenyl)amino)nicotinamide]: the results for the IC50 in assay [1] (U2OS), in assay [2] and in assay [4] were 0.529 nM, above 10 µM and above 10 µM, respectively.
